Reference: US20210379077A1, “TOPOISOMERASE II CATALYTIC INHIBITOR COMPOUND THERAPEUTICS FOR CANCER TREATMENT, METHODS AND USES” (The University of British Columbia, priority 2018, published 2021)
“Also recorded” adds a separate entry of the source.

Columns and labels:
human TOP2a = biological target: T1, human TOP2a (Homo sapiens, UniProt P11388); assay: K-DNA decatenation assay; type: biochemical; conditions: 0-50 μM, 37° C., 1 hour
T1 construct: purchased TopoGENE (TopoGEN) TG1001 (assay kit)
Description: (§1) DNA samples were separated by electrophoresis on 0.8% agarose gels and visualized by ethium bromide staining. The positions of K-DNA and decatenated (D) DNA products are marked by arrows. Experiments were repeated five times and the densitometry of the D bands were used to establish an inhibition curve to calculate IC50. (b) Supercoiled pHOT™ plasmid was incubated with human TOP2a in the presence of 50 μM Etopside, 50 uM ICRF193 or 0-50 μM of compound #60 (Top60) compound at 37° C. for 1 hour. DNA products were separated by electrophoresis on 1% agarose gels and visualized by ethium bromide staining. The positions of supercoiled (SC), nicked (N), and relaxed (R) DNA bands are marked by arrows. Experiments were repeated five times and the densitometiy of the SC bands were used to establish an inhibition curve to calculate IC50. (c) Supercoiled pHOT™ plasmid was incubated with Topoisomerase I prior to addition of either mAMSA or compound #60 (Top60) at concentrations of 0, 5, 10, 25 and 50 μM at 37° C. for 30 minutes. Reactions were stopped by 1% SDS at 37° C. for 15 minutes. DNA products were separated by electrophoresis on a 1% agarose gels and visualized by ethium bromide staining. […]

Hela cells [1] = assay: Confocal microscopy of nuclei size; type: cell-based; conditions: 20 μM, 48 hours, DAPI staining
Description: BrdU incorporation rates were determined by Millipore™ BrdU incorporation kit (CAT #2750). (b-c) Hela cells were treated with vehicle or 20 μM of Top60 for 48 hours. Cells were then stained with APC-BrdU and 7-AAD for 4 hours, and subjected to FACS assays to determine cell populations at Sub G0/G1, G0/G1, S, and G2/M phases. Results were collected from three independent experiments, (d-e) Hela cells were treated with either vehicle or 20 μM T60 for 48 hours. Cells were fixed and co-stained with DAPI and phalloidin, and examined by confocal microscopy. Fifty cells were chosen from five high power fields to analyze nuclei sizes by the Image J software. Representative bright field microscopic images were also shown. Scale bar=50 μm.
Confocal microscopy—Cells were fixed with 4% paraformaldehyde, treated in 0.25% Triton X-100 for 15 mins, incubated with F-actin conjugated to Phalloidin-iFluor 488™ (Abeam™; Cambridge, UK), and mounted with DAPI staining mount (Vector Labs™; Burlingame, Calif., USA). Cells were then imaged by confocal microscopy at 63× magnification (Zeiss LSM 780™; Carl Zeiss AG™; Oberkochen, Germany).

Hela cells [2] = assay: LDH cytotoxicity assay; type: cell-based; conditions: 0-20 μM, 48 hours, listed as Top60
Description: (§2) Cytotoxicity was evaluated by measuring LDH levels from cell culture media; (b) K562 cells were treated with either vehicle or 10-20 μM of Top60, Etoposide and ICRF187 for 4 hours. Whole cell lyses were collected to measure γH2AX levels with vinculin as the loading control; (c) K562 cells were treated with 0, 1, 5, 10, 15 and 20 μM of Top60, 20 μM Etoposide or 20 uM ICRF187 for 48 hours. Cell proliferation rates were determined by MTS assays; and (d) K562 cells were treated with 20 μM of Top60, Etoposide or ICRF187 for 0, 24, 48 and 72 hours. Cell proliferation rates were measured by MTS assays. All results were collected from three independent experiments.
Cytotoxicity assay—Cytotoxicity assays were performed using the commercial kit from Pierce (CAT #8078). Briefly, culture media was collected and used to measure lactate dehydrogenase (LDH) levels by a colorimetric method following manufacture's protocol.

K562 cells = assay: MTS cell proliferation assay; type: cell-based; conditions: 0-20 μM 48 hours, 20 μM 0-72 hours, listed as Top60
Description: as §2
BrDU incorporation and cell proliferation assays—Cell proliferation rates were measured by using the CellTitre™ 96 AqueousOne™ kit (Promega™) and bromodeoxyuridine (BrdU) assay kit (Millipore™) according to the manufacturer's protocol, with minor modifications as we have previously described by Li H. et al.^19

Topo IIα = Topo IIα (Homo sapiens, UniProt P11388); assay: DNA cleavage assay (linear DNA formation); type: biochemical; set-up: purchased TopoGENE (TopoGEN) TG2000H; conditions: supercoiled plasmid with Topo II, 50 μM
Description: as §1, with “minutes.” for “minutes. Reactions were stopped by 1% SDS at 37° C. for 15 minutes. DNA products were separated by electrophoresis on a 1% agarose gels and visualized by ethium bromide staining.”
Top60 is a catalytic inhibitor of Topo II To verify that our lead Compound 60(Top60), the formation of ds DNA breaks was assayed both in and outside of cells. […] Furthermore, H2AXγ protein expression was assessed by Western blot to determine if the lead compound could cause DNA damage in cells, and compared to Etoposide as a control (FIG. 3b). […]

Sequence of Topo IIα (P11388 whole entry): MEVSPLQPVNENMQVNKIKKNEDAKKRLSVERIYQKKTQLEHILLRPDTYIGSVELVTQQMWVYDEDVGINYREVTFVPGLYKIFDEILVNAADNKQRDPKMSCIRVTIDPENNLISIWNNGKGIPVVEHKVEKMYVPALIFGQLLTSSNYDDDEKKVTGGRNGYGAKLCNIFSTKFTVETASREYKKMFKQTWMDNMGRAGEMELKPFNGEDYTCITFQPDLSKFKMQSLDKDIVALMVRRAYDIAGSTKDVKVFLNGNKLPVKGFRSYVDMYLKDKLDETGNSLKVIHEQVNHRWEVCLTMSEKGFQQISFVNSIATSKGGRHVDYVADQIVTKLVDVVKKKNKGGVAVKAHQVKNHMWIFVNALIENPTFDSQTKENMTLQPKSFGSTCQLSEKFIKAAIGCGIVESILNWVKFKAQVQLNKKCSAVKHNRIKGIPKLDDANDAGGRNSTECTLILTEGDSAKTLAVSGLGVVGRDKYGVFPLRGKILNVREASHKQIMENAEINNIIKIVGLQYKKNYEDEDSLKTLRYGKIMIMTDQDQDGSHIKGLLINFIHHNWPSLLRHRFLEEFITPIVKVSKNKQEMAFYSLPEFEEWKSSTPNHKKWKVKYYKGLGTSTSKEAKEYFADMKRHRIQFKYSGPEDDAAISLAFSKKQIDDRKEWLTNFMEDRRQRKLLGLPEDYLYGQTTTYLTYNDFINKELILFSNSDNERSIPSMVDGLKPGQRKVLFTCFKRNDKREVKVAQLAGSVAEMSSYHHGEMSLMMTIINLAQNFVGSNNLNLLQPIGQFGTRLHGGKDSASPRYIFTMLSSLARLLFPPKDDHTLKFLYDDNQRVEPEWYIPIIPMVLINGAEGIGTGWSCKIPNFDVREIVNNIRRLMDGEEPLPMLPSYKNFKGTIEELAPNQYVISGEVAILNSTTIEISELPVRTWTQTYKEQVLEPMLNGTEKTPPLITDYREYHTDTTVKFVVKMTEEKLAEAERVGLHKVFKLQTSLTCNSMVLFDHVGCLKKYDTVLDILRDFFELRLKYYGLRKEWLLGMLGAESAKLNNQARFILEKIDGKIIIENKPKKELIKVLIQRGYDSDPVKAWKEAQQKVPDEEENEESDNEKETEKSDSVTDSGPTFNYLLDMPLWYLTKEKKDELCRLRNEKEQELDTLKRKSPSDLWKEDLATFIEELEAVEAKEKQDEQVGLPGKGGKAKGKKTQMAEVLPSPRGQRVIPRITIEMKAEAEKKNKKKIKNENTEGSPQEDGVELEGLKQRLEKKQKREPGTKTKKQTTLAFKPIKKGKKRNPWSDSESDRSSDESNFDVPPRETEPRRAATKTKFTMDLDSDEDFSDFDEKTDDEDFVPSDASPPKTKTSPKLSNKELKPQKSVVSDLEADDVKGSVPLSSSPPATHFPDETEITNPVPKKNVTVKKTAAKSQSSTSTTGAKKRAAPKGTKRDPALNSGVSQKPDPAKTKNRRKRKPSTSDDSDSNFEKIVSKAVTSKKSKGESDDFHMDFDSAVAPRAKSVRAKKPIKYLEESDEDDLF
T1 sequence (P11388 whole entry): as above

O=C(Nc1ccc(Nc2ccccc2)cc1)c1ccc[nH]c1=S [Compound 60]
IC50 in the decatenation assay (human TOP2a): nanomolar
nuclei size (Hela cells [1]): enlarged nuclei
cytotoxicity (LDH levels in culture media) (Hela cells [2]): Low cytotoxic affect; also recorded: low cytotoxicity
cell proliferation (MTS) (K562 cells): strong inhibitory effects; also recorded: inhibits cell proliferation
formation of linear DNA (double stranded DNA breaks, poison activity) (Topo IIα): no linear DNA is formed
formation of linear DNA (double stranded DNA breaks, poison activity) (Topo IIα; listed as Top60): almost no band corresponding to linear DNA is formed
